Reference: patent US20230203060A1 (GENFLEET THERAPEUTICS (SHANGHAI) INC., priority 2020, published 2023)

What was measured:
KRAS G12C = molecular target: T1, KRAS G12C (Homo sapiens, UniProt P01116, G12C); assay: KRAS G12C NEA-HTRF experiment (SOS1-catalyzed displacement of GDP by GTP); type: biochemical
T1 construct: purchased Reactionbiology
Procedure, shortened: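 His-tagged KRAS G12C preloaded with DY647-GDP was preincubated 15 min at 20 °C with compound, then exchanged with SOS1 (0.2 μM working solution) and GTP (200 μM working solution) for 2 h at 20 °C in the dark. HTRF 665/615 nm ratio with anti-His-Tb was normalised to T0 and no-compound controls; IC50 by four-parameter fit.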

[1] = system: KRAS G12C mutant MIA PaCa-2 cells; assay: Cell proliferation inhibition experiment, 3D spheroid, CellTiter-Glo, MIA PaCa-2; type: cell-based, human; settings: Homo sapiens, MIA PaCa-2, 120 h, 3D cell model in 384-well spheroid plate, 5 days, CellTiter-Glo; read-out: MIA-PaCa2 IC50
Procedure, shortened: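 200 MIA PaCa-2 cells/well grown overnight as 3D spheroids, then exposed to 3.16-fold compound dilutions (0.1% DMSO final) for 5 days. Viability read by CellTiter-Glo luminescence; inhibition calculated against DMSO and medium-only controls, and IC50 fitted by four-parameter model.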

T1 sequence (P01116 1-188 isoform P01116-2 G12C): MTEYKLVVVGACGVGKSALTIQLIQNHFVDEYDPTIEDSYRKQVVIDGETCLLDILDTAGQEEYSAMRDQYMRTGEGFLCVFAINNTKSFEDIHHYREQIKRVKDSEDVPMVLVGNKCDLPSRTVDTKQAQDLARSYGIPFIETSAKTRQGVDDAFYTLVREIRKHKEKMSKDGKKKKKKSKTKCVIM

| IC50 (KRAS G12C) | IC50 [1] | Compound |
| --- | --- | --- |
| 258 nM | 43 nM | C=CC(=O)N1CCN2C(=O)c3c(N4C[C@H](N5CCN(C)CC5)C[C@@H]4C)nc(-c4ccccc4F)c(Cl)c3OC[C@H]2C1 [Z470-1] |
| 76.8 nM | 45 nM | C=CC(=O)N1CCN2C(=O)c3c(N4CC(N(C)C)CC4(C)C)nc(-c4cccc(F)c4F)c(Cl)c3OC[C@H]2C1 (single isomer, unassigned) [Z473-2] |
| 131 nM | 16 nM | C=CC(=O)N1CCN2C(=O)c3c(N4CCC[C@@]4(C)C(=O)NC)nc(-c4c(O)cccc4F)c(Cl)c3OC[C@H]2C1 [Z462, (2S)-1-((6aR)-8-acryloyl-4-chloro-3-(2-fluoro-6-hydroxyphenyl)-12-oxo-6,6a,7,8,9,10-hexahydro-12H-pyrazino[2,1-c]pyrido[3,4-f][1,4]oxazepin-1-yl)-N,2-dimethylpyrrolidine-2-carboxamide] |
| 33.5 nM | 14 nM | C=CC(=O)N1CCN2C(=O)c3c(N4C[C@@H](NC)CC4(C)C)nc(-c4ccccc4F)c(Cl)c3OC[C@H]2C1 (single isomer, unassigned) [Z661-1] |
| 13.9 nM | > 1000 nM | C=CC(=O)N1CCN2C(=O)c3c(N4CC(C(=O)O)CC4(C)C)nc(-c4c(O)cccc4F)c(Cl)c3OC[C@H]2C1 (stereo partly drawn) [Z458, 1-((6aR)-8-acryloyl-4-chloro-3-(2-fluoro-6-hydroxyphenyl)-12-oxo-6,6a,7,8,9,10-hexahydro-12H-pyrazino[2,1-c]pyrido[3,4-f][1,4]oxazepin-1-yl)-5,5-dimethylpyrrolidine-3-carboxylic acid] |
| 32.9 nM | 13.1 nM | C=CC(=O)N1CCN2C(=O)c3c(N4CC(NC)CC4(C)C)nc(-c4ccccc4F)c(Cl)c3OC[C@H]2C1 (stereo partly drawn) [Z661, (6aR)-8-acryloyl-4-chloro-1-(2,2-dimethyl-4-(methylamino)pyrrolidin-1-yl)-3-(2-fluorophenyl)-6,6a,7,8,9,10-hexahydro-12H-pyrazino[2,1-c]pyrido[3,4-f][1,4]oxazepin-12-one] |
| 9.3 nM | 4 nM | C=CC(=O)N1CCN2C(=O)c3c(N4CC(N(C)CC(F)F)CC4(C)C)nc(-c4ccccc4F)c(Cl)c3OCC2C1 (single isomer, unassigned) [Z659-2] |
| 142 nM | 11 nM | C=CC(=O)N1CCN2C(=O)c3c(N4CCOC[C@@H]4C)nc(-c4c(O)cccc4F)c(Cl)c3OC[C@H]2C1 [Z32] |
| 17.9 nM | 10 nM | C=CC(=O)N1CCN2C(=O)c3c(N4C[C@@H](N5CC(F)C5)CC4(C)C)nc(-c4ccccc4F)c(Cl)c3OC[C@H]2C1 [Z480-1, (R)-8-acryloyl-4-chloro-1-((S)-4-(3-fluoroazetidin-1-yl)-2,2-dimethylpyrrolidin-1-yl)-3-(2-fluorophenyl)-6,6a,7,8,9,10-hexahydro-12H-pyrazino[2,1-c]pyrido[3,4-f][1,4]oxazepin-12-one] |
| 42 nM | 4 nM | C=CC(=O)N1CCN2C(=O)c3c(N4C[C@@H](O)CC4(C)C)nc(-c4c(N)cccc4F)c(F)c3OC[C@H]2C1 [Z481, (6aR)-8-acryloyl-3-(2-amino-6-fluorophenyl)-4-fluoro-1-((S)-4-hydroxy-2,2-dimethylpyrrolidin-1-yl)-6,6a,7,8,9,10-hexahydro-12H-pyrazino[2,1-c]pyrido[3,4-f][1,4]oxazepin-12-one] |
| 9410 nM | > 1000 nM | C=CC(=O)N1CCN2C(=O)c3c(N4CCN(C)C[C@@H]4C)nc(C#CC)c(Cl)c3OC[C@H]2C1 [Z459, (R)-8-acryloyl-4-chloro-1-((S)-2,4-dimethylpiperazin-1-yl)-3-(prop-1-yn-1-yl)-6,6a,7,8,9,10-hexahydro-12H-pyrazino[2,1-c]pyrido[3,4-f][1,4]oxazepin-12-one] |
| 15 nM | 10 nM | C=CC(=O)N1CCN2C(=O)c3c(N4CC(N(C)CC(F)(F)F)CC4(C)C)nc(-c4ccccc4F)c(Cl)c3OC[C@H]2C1 (mixture of isomers) [Z491a, (6aR)-8-acryloyl-4-chloro-1-(2,2-dimethyl-4-(methyl(2,2,2-trifluoroethyl)amino)pyrrolidin-1-yl)-3-(2-fluorophenyl)-6,6a,7,8,9,10-hexahydro-12H-pyrazino[2,1-c]pyrido[3,4-f][1,4]oxazepin-12-one] |
| 262 nM | 39 nM | C=CC(=O)N1CCN2C(=O)c3c(N4CCN(C)C[C@@H]4C)nc(-c4ccccc4F)c(Cl)c3OC[C@H]2C1 [Z407-1, (R)-8-acryloyl-4-chloro-1-((S)-2,4-dimethylpiperazin-1-yl)-3-(2-fluorophenyl)-6,6a,7,8,9,10-hexahydro-12H-pyrazino[2,1-c]pyrido[3,4-f][1,4]oxazepin-12-one] |
| 46.9 nM | 11.2 nM | C=CC(=O)N1CCN2C(=O)c3c(N4CCN(C)C[C@@H]4C)nc(-c4c(O)cccc4Cl)c(Cl)c3OC[C@H]2C1 [Z452, (6aR)-8-acryloyl-4-chloro-3-(2-chloro-6-hydroxyphenyl)-1-((S)-2,4-dimethylpiperazin-1-yl)-6,6a,7,8,9,10-hexahydro-12H-pyrazino[2,1-c]pyrido[3,4-f][1,4]oxazepin-12-one] |
| 147 nM | 34 nM | C=CC(=O)N1CCN2C(=O)c3c(N4CC(O)CC4(C)C)nc(-c4c(F)cccc4OC)c(F)c3OC[C@H]2C1 (single isomer, unassigned) [Z450] |
| 610 nM | 330 nM | C=CC(=O)N1CCN2C(=O)c3c(N4C[C@H](N5CC(C(F)(F)F)C5)CC4(C)C)nc(-c4ccccc4F)c(Cl)c3OC[C@H]2C1 (single isomer, unassigned) [Z608-1] |
| 23.4 nM | 11 nM | C=CC(=O)N1CCN2C(=O)c3c(N4C[C@@H](NCC(F)(F)F)CC4(C)C)nc(-c4ccccc4F)c(Cl)c3OC[C@H]2C1 (single isomer, unassigned) [Z662-1] |
| 113 nM | 150 nM | C=CC(=O)N1CCN2C(=O)c3c(N[C@H](C)c4ccccc4)nc(-c4c(O)cccc4F)c(Cl)c3OC[C@H]2C1 [Z28, (6aR)-8-acryloyl-4-chloro-3-(2-fluoro-6-hydroxyphenyl)-1-(((R)-1-phenylethyl)amino)-6,6a,7,8,9,10-hexahydro-12H-pyrazino[2,1-c]pyrido[3,4-f][1,4]oxazepin-12-one] |
| 145 nM | 74 nM | C=CC(=O)N1CCN2C(=O)c3c(N4C[C@@H](N(C)C)CC4(C)C)nc(-c4cccc(C)c4F)c(Cl)c3OC[C@H]2C1 (single isomer, unassigned) [Z472-1] |
| 150 nM | 28 nM | C=CC(=O)N1CCN2C(=O)c3c(N4CCC[C@H]4C)nc(-c4c(O)cccc4F)c(Cl)c3OC[C@H]2C1 [Z48, (6aR)-8-acryloyl-1-((R)-2-methylpyrrolidin-1-yl)-4-chloro-3-(2-fluoro-6-hydroxyphenyl)-6,6a,7,8,9,10-hexahydro-12H-pyrazino[2,1-c]pyrido[3,4-f][1,4]oxazepin-12-one] |
| 43.6 nM | 14 nM | C=CC(=O)N1CCN2C(=O)c3c(N4C[C@@H](N(C)C)CC4(C)C)nc(-c4ccccc4F)c(Cl)c3OC[C@H]2C1 [Z453-1, (R)-8-acryloyl-4-chloro-1-((S)-4-(dimethylamino)-2,2-dimethylpyrrolidin-1-yl)-3-(2-fluorophenyl)-6,6a,7,8,9,10-hexahydro-12H-pyrazino[2,1-c]pyrido[3,4-f][1,4]oxazepin-12-one] |
| 23.8 nM | 10 nM | C=CC(=O)N1CCN2C(=O)c3c(N4C[C@@H](N5CC(C#N)C5)CC4(C)C)nc(-c4ccccc4F)c(Cl)c3OC[C@H]2C1 (single isomer, unassigned) [Z637-2] |
